Data reported in patent publication US20230183265A1, “Crystal Form of Macrocyclic Tyrosine Kinase Inhibitor and Preparation Method therefor” (SHANDONG XUANZHU PHARMA CO., LTD., priority 2020, published 2023).

Legend:
[1] = test system: Ba/F3 ETV6-NTRK3-G623R cell line; assay: In vitro cytological inhibitory activity (CelltiterGlo assay); assay type: cell-based; details: Mus musculus, BaF3, 72 hours
Excerpt: (§1) Test compound: the compound represented by Formula (I), prepared according to the method in Embodiment 1.
(§2) The meanings of cell lines used in the experiment are as follows: • Ba/F3 LMNA-NTRK1-G595R cell line: • A stably expressed cell line of Ba/F3 cells transfected with LMNA-NTRK1 G595R; and • Ba/F3 ETV6-NTRK3-G623R cell line: • A stably expressed cell line of Ba/F3 cells transfected with ETV6-NTRK3-G623R.
(§3) Experimental Method (CelltiterGlo Assay)
(§4) 1. Cell Culture and Inoculation
(§5) All cells were suspension cells, and all culture mediums were RPM1-1640+10% FBS. The cells were tested in a logarithmic growth phase.
(§6) The cells in the logarithmic growth phase were collected and counted by a […]. A trypan blue exclusion method was used to detect the cell activity, to ensure that the cell activity was above 90%. It was adjusted to the appropriate concentration, and 90 μL of cell suspension was respectively added to a 96-well plate.
(§7) 2. Preparation of Test Compound
(§8) “M” means “mol/L”, “mM” means “mmol/L”, and “μM” means “μmol/L”. […]
(§9) A CellTiter-Glo luminescent cell viability assay (CTG) reagent was molten and a cell plate was balanced to a room temperature for 30 minutes. […] The light signal value was read by a multifunctional microplate reader.
(§10) 1) Inhibition rate (%)=(DMSO solvent control well reading−test compound well reading)/(DMSO solvent control well reading−blank well reading)×[…]; and […]

[2] = test system: Ba/F3 LMNA-NTRK1-G595R cell line; assay: as above; assay type: cell-based; details: Mus musculus, BaF3, 72 hours
Excerpt: as §1, §2, §3, §4, §5, §6, §7, §8, §9, §10

[3] = test system: Ba/F3 SLC34A2/ROS1-G2032R cell line; assay: In vitro cytological inhibitory activity (Celltiter-Glo assay); assay type: cell-based; details: Mus musculus, BaF3, 72 hours
Experimental: as §1
The meanings of cell lines used in the experiment are as follows: • Ba/F3 SLC34A2/ROS1-G2032R cell line: • A stably expressed cell line of Ba/F3 cells transfected with SLC34A2/ROS1-G2032R.
Experimental Method (Celltiter-Glo Assay)
as §4, §5
as §6, with “activity, as” for “activity,”
as §7
2.2 Preparation of Working Stock Solution of Test Compound […]
A CTG reagent was molten and a cell plate was balanced to a room temperature for 30 minutes. […] The light signal value was read by a multifunctional microplate reader.
1) Cell survival rate (%)=(test compound well reading−blank well reading)/(DMSO solvent control well reading−blank well reading)×100%; and […]

[4] = test system: xenograft tumor of BaF3 LMNA-NTRK1-G595R stably transfected cell line; assay: Efficacy study on BaF3 LMNA-NTRK1-G595R stable cell strain subcutaneous xenograft model; assay type: in vivo, mouse (NOD-SCID); details: bid, p.o., 7 days
Experimental: Test substance: the compound represented by Formula (I), prepared according to the method in Embodiment 1.
A BaF3LMNA-NTRK1-G595R stably transfected cell line resuspended in a RPM11640 serum-free medium was inoculated subcutaneously on a right scapula of a mouse (nonobese diabetic-severe combined immunodeficiency disease (NOD-SCID)) at 1×10^6 cells/mouse (0.1 ml/mouse).
3.2 Grouping Administration
While the average tumor volume was about 500 mm^3, it was randomly divided into a vehicle group, a compound represented by Formula (I) (10/5/3/1 mg/kg, bid) group and a LOXO-195 group (30/10/3 mg/kg, bid).
3.3 Experimental Evaluation Index
1) Tumor growth inhibition rate TGI (%) • TGI (%)=(1−T/C)×100%
2) Tumor volume ratio of Treatment group/Control group TIC (%) • TIC (%)=TRTV/CRTV×100% • RTV=Vt/V0, herein Vt is the tumor volume on the t-th day after grouping, and V0 is the tumor volume on the day of grouping; TRTV: the average relative tumor volume in the administration group; and CRTV: the average relative tumor volume in the vehicle control group.

[5] = Stability test of crystal form II; assay type: physicochemical
Experimental: Test sample: the crystal form II of the compound represented by Formula (I)
Test method: a suitable amount of the test samples was respectively weighed, and the appearance, moisture, content, related substances, XRD, and DSC of the test samples were investigated after being placed under the following conditions. The placing conditions were as follows.
Under the conditions of 60° C.±2° C., or of 25° C. RH92.5%, it was placed for 10 days, opened/closed, and a sample was taken for testing on the 10th day (the opened package is a flat weighing bottle, and the closed package is a low-density polyethylene bag or low-density polyethylene bag+composite film bag.
Under the conditions of 40° C. RH75%, it was placed for one month, opened/closed, and a sample was taken for testing after one month (the opened package is the flat weighing bottle, and the closed package is the low-density polyethylene bag or low-density polyethylene bag+composite film bag).
Moisture: it was determined according to the first 2 coulometric titration of the general rule 0832 (moisture determination) of the Chinese Pharmacopoeia (2015 Edition, Part IV).
XRD: it was determined according to the general rule 0451 (X-ray diffraction) of the Chinese Pharmacopoeia (2015 Edition, Part IV).
DSC: it was determined at a heating rate of 3° C./min, from 100° C. to 200° C.
Related substances and content: it was determined according to the general rule 0512 (HPLC) of the Chinese Pharmacopoeia (2015 Edition, Part IV).

[6] = Hygroscopicity test of crystal form II; assay type: physicochemical
Experimental: 2. Hygroscopicity Test of Crystal Form II
Test sample: the crystal form II of the compound represented by Formula (I).
Test method: it was determined according to the general rule 9103 (guidelines of drug hygroscopicity test) of the Chinese Pharmacopoeia (2015 Edition, Part IV): the test sample was placed under the condition of 25° C. and RH80% for 24 h (a sample bottle was placed under this condition for 24 h in advance), and results were shown in Table 2: […]

[7] = 25° C. RH 92.5% 10 days, Opened
[8] = 25° C. RH 92.5% 10 days, Polyethylene bag
[9] = 25° C. RH 92.5% 10 days, Polyethylene bag + composite film bag
[10] = 40° C. RH 75% 1M, Polyethylene bag
[11] = 40° C. RH 75% 1M, Polyethylene bag + composite film bag
[12] = 60° C. 10 days, Polyethylene bag
[13] = 60° C. 10 days, Polyethylene bag + composite film bag

Work on C[C@@H]1COc2ncc(F)cc2[C@H]2CCCN2c2ccc3ncn(c3n2)C(=O)N1 [Compound represented by Formula (I), (2^2R, 6R)-3^5-fluoro-6-methyl-1^3H-4-oxa-7-aza-1(5,3)-imidazo[4,5-b]pyridina-3(3,2)-pyridina-2(1,2)-pyrrolidina cyclooctaphan-8-one] yielded an IC50 [1] of 1 nM, an IC50 [2] of 0.6 nM and an IC50 [3] of 2.3 nM. For the same compound, the T/C ([4]; experiment 1, 3 mg/Kg) was 73.2%, the TGI ([4]; experiment 1, 3 mg/Kg) was 26.8% and the T/C ([4]; experiment 2, 1 mg/Kg) was 53.7%. For the same compound, the TGI ([4]; experiment 2, 1 mg/Kg) was 46.3%, the T/C ([4]; experiment 2, 5 mg/Kg) was 0% and the TGI ([4]; experiment 2, 5 mg/Kg) was 100%. For the same compound, the T/C ([4]; experiment 2, 10 mg/Kg) was 0% and the TGI ([4]; experiment 2, 10 mg/Kg) was 100%.

For C[C@@H]1COc2ncc(F)cc2[C@H]2CCCN2c2ccc3ncn(c3n2)C(=O)N1 [Crystal form II, (2^2R,6R)-3^5-fluoro-6-methyl-1^3H-4-oxa-7-aza-1(5,3)-imidazo[4,5-b]pyridina-3(3,2)-pyridina-2(1,2)-p yrrolidinacyclooctaphan-8-one], the Appearance ([5]; 0 day) was “Off-white”, the Content ([5]; 0 day) was 100.4% and the DSC ([5]; 0 day) was 162.32 °C. For the same compound, the Moisture ([5]; 0 day) was 0.088%, the Total related substance ([5]; 0 day) was 0.09% and the Appearance [5, 7] was “Off-white”. For the same compound, the Content [5, 7] was 99.6%, the DSC [5, 7] was 162.23 °C and the Moisture [5, 7] was 0.13%. The Total related substance [5, 7] was 0.11%, the XRD [5, 7] was “Same” and the Appearance [5, 8] was “Off-white”. For the same compound, the Content [5, 8] was 99.5%, the DSC [5, 8] was 162.23 °C and the Moisture [5, 8] was 0.11%. For the same compound, the Total related substance [5, 8] was 0.10%, the XRD [5, 8] was “Same” and the Appearance [5, 9] was “Off-white”. For the same compound, the Content [5, 9] was 99.3%, the DSC [5, 9] was 162.27 °C and the Moisture [5, 9] was 0.11%. For the same compound, the Total related substance [5, 9] was 0.11%, the XRD [5, 9] was “Same” and the Appearance ([5]; 40° C. RH 75% 1M, Opened) was “Off-white”. It also gave a Content ([5]; 40° C. RH 75% 1M, Opened) of 100.8%, a DSC ([5]; 40° C. RH 75% 1M, Opened) of 162.29 °C and a Moisture ([5]; 40° C. RH 75% 1M, Opened) of 0.026%. The Total related substance ([5]; 40° C. RH 75% 1M, Opened) was 0.10%, the XRD ([5]; 40° C. RH 75% 1M, Opened) was “Same” and the Appearance [5, 10] was “Off-white”. For the same compound, the Content [5, 10] was 101.0%, the DSC [5, 10] was 162.18 °C and the Moisture [5, 10] was 0.033%. The Total related substance [5, 10] was 0.10%, the XRD [5, 10] was “Same” and the Appearance [5, 11] was “Off-white”. It also gave a Content [5, 11] of 101.0%, a DSC [5, 11] of 162.35 °C and a Moisture [5, 11] of 0.036%. For the same compound, the Total related substance [5, 11] was 0.10%, the XRD [5, 11] was “Same” and the Appearance ([5]; 60° C. 10 days, Opened) was “Off-white”. It also gave a Content ([5]; 60° C. 10 days, Opened) of 99.8%, a DSC ([5]; 60° C. 10 days, Opened) of 162.24 °C and a Moisture ([5]; 60° C. 10 days, Opened) of 0.18%. For the same compound, the Total related substance ([5]; 60° C. 10 days, Opened) was 0.11%, the XRD ([5]; 60° C. 10 days, Opened) was “Same” and the Appearance [5, 12] was “Off-white”. For the same compound, the Content [5, 12] was 100.0%, the DSC [5, 12] was 162.26 °C and the Moisture [5, 12] was 0.15%. The Total related substance [5, 12] was 0.11%, the XRD [5, 12] was “Same” and the Appearance [5, 13] was “Off-white”. For the same compound, the Content [5, 13] was 99.7%, the DSC [5, 13] was 162.23 °C and the Moisture [5, 13] was 0.13%. The Total related substance [5, 13] was 0.10%, the XRD [5, 13] was “Same” and the “stability of the crystal form (in words)” value ([5]; 60° C. 10 days, 25° C. RH92.5% 10 days, 40° C. RH75% 1 month, opened/closed package) was “the stability of the crystal form is good”. The “Moisture absorption weight gain” value ([6]; 25° C. RH80% placing for 1 day) was 0.002% and the “hygroscopicity (in words)” value ([6]; 25° C. and RH80% for 24 h) was “no or almost no hygroscopicity”.

Compound C[C@@H]1CCc2ncc(F)cc2[C@H]2CCCN2c2ccn3ncc(c3n2)C(=O)N1 [LOXO-195, reference compound] has a T/C ([4]; experiment 1, 3 mg/Kg) of 93.6%, a TGI ([4]; experiment 1, 3 mg/Kg) of 6.4% and a T/C ([4]; experiment 1, 10 mg/Kg) of 63.1%. It also gave a TGI ([4]; experiment 1, 10 mg/Kg) of 36.9%, a T/C ([4]; experiment 2, 30 mg/Kg) of 0% and a TGI ([4]; experiment 2, 30 mg/Kg) of 100%.
